The results in this text go back to ChEMBL document CHEMBL2073960, “Cytotoxic and multidrug resistance reversal activity of a vegetable, 'Anastasia Red', a variety of sweet pepper” (Phytother Res, 2003).

For this data set, the target named is ATP-dependent translocase ABCB1 (Homo sapiens, UniProt P08183). The experiment in a line: TP_TRANSPORTER: increase in Rhodamine 123 intracellular accumulation in MDR1 transfected L-5178 mouse T-cell lymphoma cells. The class given is functional, cell-based.
Sequence of ATP-dependent translocase ABCB1 (P08183 whole entry): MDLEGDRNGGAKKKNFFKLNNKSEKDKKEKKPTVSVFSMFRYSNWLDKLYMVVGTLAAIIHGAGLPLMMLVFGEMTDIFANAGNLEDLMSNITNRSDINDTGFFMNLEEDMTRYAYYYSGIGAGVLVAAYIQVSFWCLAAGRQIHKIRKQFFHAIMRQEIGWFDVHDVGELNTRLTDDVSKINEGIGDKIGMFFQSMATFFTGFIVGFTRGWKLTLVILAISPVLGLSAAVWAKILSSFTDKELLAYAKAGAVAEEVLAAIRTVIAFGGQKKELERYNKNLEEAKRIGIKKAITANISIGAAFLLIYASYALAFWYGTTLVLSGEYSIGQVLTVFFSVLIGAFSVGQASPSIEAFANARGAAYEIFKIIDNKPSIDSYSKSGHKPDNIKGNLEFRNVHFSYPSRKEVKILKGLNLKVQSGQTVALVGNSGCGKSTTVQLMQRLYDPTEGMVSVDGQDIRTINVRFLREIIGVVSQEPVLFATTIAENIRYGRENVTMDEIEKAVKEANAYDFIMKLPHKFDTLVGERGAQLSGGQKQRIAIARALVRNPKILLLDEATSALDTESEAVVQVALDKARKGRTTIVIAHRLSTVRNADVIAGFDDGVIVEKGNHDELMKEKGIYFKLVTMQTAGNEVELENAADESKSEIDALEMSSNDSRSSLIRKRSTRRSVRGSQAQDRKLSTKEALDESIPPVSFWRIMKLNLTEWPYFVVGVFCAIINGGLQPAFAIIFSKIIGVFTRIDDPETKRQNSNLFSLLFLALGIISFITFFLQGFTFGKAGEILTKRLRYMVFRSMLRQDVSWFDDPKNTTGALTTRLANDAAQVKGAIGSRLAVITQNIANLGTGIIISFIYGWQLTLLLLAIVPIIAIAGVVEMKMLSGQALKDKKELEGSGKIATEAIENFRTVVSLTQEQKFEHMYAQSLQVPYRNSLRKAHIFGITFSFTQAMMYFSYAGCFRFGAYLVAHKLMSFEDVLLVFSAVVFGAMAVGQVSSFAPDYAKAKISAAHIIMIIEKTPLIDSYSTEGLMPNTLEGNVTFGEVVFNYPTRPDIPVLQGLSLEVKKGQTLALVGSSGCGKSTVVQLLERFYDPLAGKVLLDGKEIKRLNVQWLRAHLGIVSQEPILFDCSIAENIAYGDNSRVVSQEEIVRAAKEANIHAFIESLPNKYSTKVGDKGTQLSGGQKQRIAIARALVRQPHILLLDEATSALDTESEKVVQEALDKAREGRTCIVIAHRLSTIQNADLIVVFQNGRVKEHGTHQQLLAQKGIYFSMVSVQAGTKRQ

As for ANASTASIA RED EXTRACTS, the Activity result is “inhibitor [+]”.
